According to ChEMBL document CHEMBL1240530, “Inhalation by design: novel ultra-long-acting β(2)-adrenoreceptor agonists for inhaled once-daily treatment of asthma and chronic obstructive pulmonary disease that utilize a sulfonamide agonist headgroup” (J Med Chem, 2010):

What was measured:
Homo sapiens = species: Homo sapiens; assay: Selectivity ratio of EC50 for human recombinant beta-1 adrenergic receptor to EC50 for human recombinant beta2 adrenergic receptor
[1] = Bronchodilatory activity in Dunkin-Hartley guinea pig trachea assessed as time taken for electrical filed stimulation-induced constrictive response to recover by 50%; format: functional, Cavia porcellus
[2] = Distribution coefficient, log D of the compound; format: physicochemical; conditions: octanol/water
[3] = target: Beta-2 adrenergic receptor (Homo sapiens, UniProt P07550); assay: Agonist activity at human recombinant beta2 adrenergic receptor expressed in CHO cells assessed as elevation in cAMP level after 1 hr by flashplate method; format: functional, cell-based
Chain of Beta-2 adrenergic receptor (P07550 whole entry): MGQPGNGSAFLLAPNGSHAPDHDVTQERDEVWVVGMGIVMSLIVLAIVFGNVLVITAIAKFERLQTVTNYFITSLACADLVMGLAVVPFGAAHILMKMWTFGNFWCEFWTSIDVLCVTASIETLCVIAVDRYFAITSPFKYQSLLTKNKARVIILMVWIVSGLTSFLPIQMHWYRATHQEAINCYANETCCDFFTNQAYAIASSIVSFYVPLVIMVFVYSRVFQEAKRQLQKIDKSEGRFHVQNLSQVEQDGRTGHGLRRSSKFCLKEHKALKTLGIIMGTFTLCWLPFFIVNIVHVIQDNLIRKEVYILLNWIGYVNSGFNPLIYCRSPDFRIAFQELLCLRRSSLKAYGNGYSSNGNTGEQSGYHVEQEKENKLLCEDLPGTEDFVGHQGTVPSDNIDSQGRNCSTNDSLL

[4] = Dissociation constant, pKa of the compound; format: physicochemical
Canis familiaris [5] = species: Canis familiaris
Description: Bronchodilatory activity in itr dosed Beagle dog assessed as inhibition of acetylcholine-induced bronchoconstriction administered 5 doses of compound at cumulative 1 hr intervals

Canis familiaris [6] = assay: Bronchodilatory activity in itr dosed Beagle dog assessed as duration of blockade of acetylcholine-induced bronchoconstriction at 10 times ED50 administered as single dose prior to acetylcholine challenge
Canis familiaris [7] = assay: Bronchodilatory activity in itr dosed Beagle dog assessed as duration of blockade of acetylcholine-induced bronchoconstriction at ED50 administered as single dose prior to acetylcholine challenge
Canis familiaris [8] = assay: Cardiotoxicity in itr dosed Beagle dog assessed as increase in heart rate after 7.5 hrs; format: toxicity, organism-based, Canis lupus familiaris; conditions: in vivo, inhaled_or_intranasal
in vivo = conditions: beagle, dog, inhaled or intranasal
Description: Therapeutic index, ratio of dose inducing cardiovascular side effects to ED50 for inhibition of acetylcholine-induced bronchoconstriction in itr dosed Beagle dog

Liver [9] = assay: Unbound intrinsic clearance in rat liver; format: ADME, Microsome; conditions: microsomes
[10] = Tmax in rat at 100 ug, it; format: ADME, organism-based; conditions: in vivo, inhaled or intranasal
[11] = Apparent permeability from apical to basolateral side of human Caco-2 cells; format: ADME, cell-based
[12] = Volume of distribution in iv dosed rat; format: ADME, organism-based; conditions: in vivo
[13] = Cmax in rat at 100 ug, it; format: ADME, organism-based; parameters: dose 100 ug; conditions: in vivo, inhaled or intranasal
Canis familiaris [14] = assay: Cardiotoxicity in itr dosed Beagle dog assessed as induction of trachycardia after 7.5 hrs; format: toxicity, organism-based, Canis lupus familiaris; conditions: in vivo, inhaled_or_intranasal
[15] = Total clearance in iv dosed rat; format: ADME, organism-based; conditions: in vivo
[16] = target: Voltage-gated inwardly rectifying potassium channel KCNH2 (Homo sapiens, UniProt Q12809); assay: Inhibition of human ERG by patch clamp technique
Chain of Voltage-gated inwardly rectifying potassium channel KCNH2 (Q12809 whole entry): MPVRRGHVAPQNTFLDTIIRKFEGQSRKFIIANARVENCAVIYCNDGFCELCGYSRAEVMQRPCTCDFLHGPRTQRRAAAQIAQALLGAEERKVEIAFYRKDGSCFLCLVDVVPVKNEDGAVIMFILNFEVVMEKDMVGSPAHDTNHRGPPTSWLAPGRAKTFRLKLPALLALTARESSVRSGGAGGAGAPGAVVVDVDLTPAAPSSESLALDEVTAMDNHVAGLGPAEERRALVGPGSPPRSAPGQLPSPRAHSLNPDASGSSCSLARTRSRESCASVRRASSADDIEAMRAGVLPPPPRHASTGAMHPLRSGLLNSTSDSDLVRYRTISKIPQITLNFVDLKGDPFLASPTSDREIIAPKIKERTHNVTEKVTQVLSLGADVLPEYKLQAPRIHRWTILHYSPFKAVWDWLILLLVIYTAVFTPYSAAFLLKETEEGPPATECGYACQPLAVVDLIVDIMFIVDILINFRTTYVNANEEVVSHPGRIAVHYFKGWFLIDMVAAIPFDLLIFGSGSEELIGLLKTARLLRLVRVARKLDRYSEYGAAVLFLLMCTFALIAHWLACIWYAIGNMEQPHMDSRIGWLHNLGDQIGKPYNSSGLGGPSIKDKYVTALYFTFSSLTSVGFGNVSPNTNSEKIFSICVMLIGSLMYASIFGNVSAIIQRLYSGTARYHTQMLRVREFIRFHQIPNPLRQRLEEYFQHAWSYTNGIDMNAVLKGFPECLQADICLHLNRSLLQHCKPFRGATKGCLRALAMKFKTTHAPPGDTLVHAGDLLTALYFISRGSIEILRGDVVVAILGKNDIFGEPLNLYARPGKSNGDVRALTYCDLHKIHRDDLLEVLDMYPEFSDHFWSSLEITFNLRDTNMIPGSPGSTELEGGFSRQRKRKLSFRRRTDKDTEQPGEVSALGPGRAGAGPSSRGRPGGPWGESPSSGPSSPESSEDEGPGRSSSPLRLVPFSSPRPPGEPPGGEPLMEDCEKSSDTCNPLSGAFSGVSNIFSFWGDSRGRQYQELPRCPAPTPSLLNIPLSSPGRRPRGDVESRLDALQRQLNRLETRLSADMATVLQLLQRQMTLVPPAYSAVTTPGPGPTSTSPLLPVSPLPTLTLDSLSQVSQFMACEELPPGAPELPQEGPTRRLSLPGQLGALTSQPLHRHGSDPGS

Oryctolagus cuniculus = species: Oryctolagus cuniculus; assay: Toxicity in rabbit Adelta-fibre firing model assessed as induction of postinhalation cough at 50 to 1000 ug, it; format: organism-based; conditions: in vivo, inhaled_or_intranasal
[17] = Oral bioavailability in rat; format: ADME, organism-based; conditions: in vivo
Liver microsomes [18] = assay: Intrinsic clearance in human liver microsome in presence of CYP3A4 inhibitor ketoconazole; format: ADME
[19] = Plasma protein binding in iv dosed rat; format: ADME, organism-based; conditions: read-out: PPB (converted)
Liver microsomes [20] = assay: Metabolic stability in human liver microsome; format: ADME
[21] = Half life in iv dosed rat; format: ADME, organism-based; conditions: in vivo
Liver microsomes [22] = assay: Intrinsic clearance in human liver microsome; format: ADME
[23] = Metabolic stability in rat bile assessed as compound remaining; format: ADME, tissue-based
[24] = Apparent permeability from basolateral to apical side of human Caco-2 cells; format: ADME, cell-based
Liver [25] = assay: Intrinsic clearance in rat liver; format: ADME, Microsome; conditions: microsomes

Cc1ccc(CNC(=O)Cc2cccc(C[C@@H](C)NC[C@H](O)c3ccc(O)c(NS(C)(=O)=O)c3)c2)cc1C
Ratio EC50 (Homo sapiens): 3700 | Time [1]: 6.74 h | logD [2]: 2 | EC50 [3]: 0.056 nM

CC(C)(Cc1cccc(CC(=O)NCc2cc(Cl)c(O)c(Cl)c2)c1)NC[C@H](O)c1ccc(O)c(NS(C)(=O)=O)c1
Ratio EC50 (Homo sapiens): 1600 | Time [1]: 3.66 h | logD [2]: 0.8 | EC50 [3]: 0.091 nM | pKa [4]: 6.69

C[C@H](Cc1cccc(CC(=O)NCc2ccc(Cl)c(Cl)c2)c1)NC[C@H](O)c1ccc(O)c(CO)c1
Ratio EC50 (Homo sapiens): 5300 | Time [1]: 9 h

C[C@H](Cc1cccc(CC(=O)NCCc2ccccc2)c1)NC[C@H](O)c1ccc(O)c(NS(C)(=O)=O)c1
Ratio EC50 (Homo sapiens): 1800 | EC50 [3]: 0.04 nM

C[C@H](Cc1cccc(CC(=O)NCCCc2ccccc2)c1)NC[C@H](O)c1ccc(O)c(NS(C)(=O)=O)c1
Ratio EC50 (Homo sapiens): 3400 | Time [1]: 5.85 h | logD [2]: 1.7 | EC50 [3]: 0.042 nM

CC(C)(Cc1cccc(CC(=O)NCc2ccc(-c3ccc(O)cc3)cc2)c1)NC[C@H](O)c1ccc(O)c(NS(C)(=O)=O)c1
Ratio EC50 (Homo sapiens): 1300 | Time [1]: 6.57 h

CC(C)(Cc1cccc(CC(=O)NCc2ccc3cc(O)ccc3c2)c1)NC[C@H](O)c1ccc(O)c(NS(C)(=O)=O)c1
Ratio EC50 (Homo sapiens): 730 | Time [1]: 6.17 h | logD [2]: 1.3 | EC50 [3]: 0.21 nM

OCc1cc(C(O)CNCCCCCCOCCCCc2ccccc2)ccc1O (stereo not given) [SALMETEROL]
ED50 (Canis familiaris [5]): 1 µg | Time (Canis familiaris [6]): <7 h | Time [1]: 6.97 h | Time (Canis familiaris [7]): 4 h | Activity (Canis familiaris [8]): Toxic

CCN(Cc1ccc(O)cc1Cl)C(=O)Cc1cccc(CC(C)(C)NC[C@H](O)c2ccc(O)c(NS(C)(=O)=O)c2)c1
Ratio EC50 (Homo sapiens): 210 | Time [1]: 8.49 h | logD [2]: 1.6 | EC50 [3]: 0.37 nM

CCOc1ccccc1CNC(=O)Cc1cccc(C[C@@H](C)NC[C@H](O)c2ccc(O)c(NS(C)(=O)=O)c2)c1
Ratio EC50 (Homo sapiens): 3300 | Time [1]: 6.2 h | logD [2]: 1.6 | EC50 [3]: 0.048 nM

CC(C)(Cc1cccc(CC(=O)NCc2ccc(Cl)c(Cl)c2)c1)NC[C@H](O)c1ccc(O)c(NS(C)(=O)=O)c1
Ratio EC50 (Homo sapiens): 1700 | Time [1]: 8.34 h | logD [2]: 2.4 | EC50 [3]: 0.066 nM

C[C@H](Cc1cccc(CC(=O)NCc2ccccc2)c1)NC[C@H](O)c1ccc(O)c(NS(C)(=O)=O)c1
Ratio EC50 (Homo sapiens): 16000 | Time [1]: 3.24 h | logD [2]: 1 | EC50 [3]: 0.027 nM

COc1cccc(OC)c1CNC(=O)c1cc2cc(C[C@@H](C)NC[C@H](O)c3ccc(O)c(CO)c3)ccc2[nH]1
ED50 (Canis familiaris [5]): 1 µg | Time (Canis familiaris [6]): >8 h | selectivity ratio (in vivo): 10 | Time (Canis familiaris [7]): >8 h

Cc1cc(O)cc(C)c1CNC(=O)Cc1cccc(CC(C)(C)NC[C@H](O)c2ccc(O)c(NS(C)(=O)=O)c2)c1
Ratio EC50 (Homo sapiens): 3700 | Time [1]: 4.59 h | logD [2]: 1.1 | EC50 [3]: 0.045 nM | pKa [4]: 9.93

CC(C)(Cc1cccc(CC(=O)NCc2ccccc2)c1)NC[C@H](O)c1ccc(O)c(NS(C)(=O)=O)c1
Ratio EC50 (Homo sapiens): 7500 | EC50 [3]: 0.023 nM

C[C@H](Cc1cccc(CC(=O)NCC2CCCCC2)c1)NC[C@H](O)c1ccc(O)c(NS(C)(=O)=O)c1
Ratio EC50 (Homo sapiens): 3100 | Time [1]: 5.79 h | EC50 [3]: 0.032 nM

C[C@H](Cc1cccc(CC(=O)NC23CC4CC(CC(C4)C2)C3)c1)NC[C@H](O)c1ccc(O)c(CO)c1
Ratio EC50 (Homo sapiens): 1300 | Time [1]: 6.35 h | EC50 [3]: 0.064 nM

CC(C)(Cc1ccccc1)NCC(O)c1ccc(O)c(NS(C)(=O)=O)c1 (stereo not given) [ZINTEROL]
Time [1]: 3.4 h | logD [2]: 0.6

CC(C)(Cc1cccc(CC(=O)NCc2ccc(O)cc2Cl)c1)NC[C@H](O)c1ccc(O)c(NS(C)(=O)=O)c1
Ratio EC50 (Homo sapiens): 7300 | Time [1]: 6.8 h | logD [2]: 1.2 | EC50 [3]: 0.02 nM

CC(C)(Cc1cccc(CC(=O)NCc2cc(Cl)cc(Cl)c2O)c1)NC[C@H](O)c1ccc(O)c(NS(C)(=O)=O)c1
Ratio EC50 (Homo sapiens): 560 | Time [1]: 8.02 h | logD [2]: 2 | EC50 [3]: 0.13 nM

COc1ccccc1CNC(=O)Cc1cccc(C[C@@H](C)NC[C@H](O)c2ccc(O)c(NS(C)(=O)=O)c2)c1
Ratio EC50 (Homo sapiens): 5600 | Time [1]: 4.22 h | logD [2]: 1.2 | EC50 [3]: 0.04 nM

CC(C)(Cc1cccc(CC(=O)NCc2cccc(-c3ccc(O)cc3)c2)c1)NC[C@H](O)c1ccc(O)c(NS(C)(=O)=O)c1 [PF-00610355]
CL free (Liver [9]): > 10000 mL/min/kg | Tmax [10]: 0.5 h | Ratio EC50 (Homo sapiens): 220 | Papp A→B [11]: < 1 ×10⁻⁶ cm/s | ED50 (Canis familiaris [5]): 0.1 µg | Time (Canis familiaris [6]): >8 h | Vd [12]: 31 L/kg | Time [1]: 6.23 h | Cmax [13]: 1.3 nM | selectivity ratio (in vivo): ≥ 10 | Time (Canis familiaris [7]): >8 h | Activity (Canis familiaris [14]): Non-toxic | clearance [15]: 103 mL/min/kg | IC50 [16]: > 10000 nM | Activity (Oryctolagus cuniculus): Non-toxic | bioavailability [17]: < 5% | CL (Liver microsomes [18]): < 0.01 mL/min/kg | logD [2]: 1.9 | fraction unbound [19]: 0.05 | Stability (Liver microsomes [20]): 80% | half-life [21]: 3.5 h | CL (Liver microsomes [22]): 0.054 mL/min/kg | Stability [23]: 6% | Papp B→A [24]: 13 ×10⁻⁶ cm/s | CL (Liver [25]): 0.033 mL/min/kg

CC(C)(Cc1cccc(CC(=O)NCc2cc(Cl)ccc2O)c1)NC[C@H](O)c1ccc(O)c(NS(C)(=O)=O)c1
Ratio EC50 (Homo sapiens): 7000 | Time [1]: 6 h | logD [2]: 1.6 | EC50 [3]: 0.17 nM | pKa [4]: 9.22
